The values below come from patent US8962651B2, “Compounds for the treatment of hepatitis C” (Bristol-Myers Squibb Company, priority 2013, dated 2015).

Where two headings read alike, the source gives them in different places.

Data set [1] relates to genotype 1b (Con-1) HCV replicon. Briefly: HCV replicon luciferase assay. In kind it is cell-based. Conditions: Hepatitis C virus, Huh-7, 72 h, 1b replicon, Huh-7 cells, Renilla luciferase, 3 days incubation. The method, then: The cell lines used to evaluate compounds consist of a human hepatocyte derived cell line (Huh-7) that constitutively expresses a genotype 1b (Con-1) HCV replicon or a genotype 1b (Con-1) HCV replicon with an asparagine replacing the cysteine at amino acid 316, or a genotype 2a (JFH-1) replicon, containing a Renilla luciferase reporter gene. These cells were maintained in Dulbecco's modified Eagle medium (DMEM) containing 10% FBS, 100 U/mL penicillin/streptomycin and 1.0 mg/mL G418.
After 3 days incubation at 37° C., cells were analyzed for Renilla Luciferase activity using the EnduRen substrate (Promega cat #E6485) according to the manufacturer's directions. Briefly, the EnduRen substrate was diluted in DMEM and then added to the plates to a final concentration of 7.5 μM. The plates were incubated for at least 1 h at 37° C. then read on a Viewlux Imager (PerkinElmer) using a luminescence program.

Another data set concerns the target HCV NS5B (Hepatitis C virus genotype 1b (isolate Con1) (HCV), UniProt Q9WMX2). Put plainly: HCV NS5B RdRp enzyme assay. In kind it is biochemical, HCV genotype 1b (Con1). The method, then: Each untagged protein was expressed with an 18 amino acid C-terminal truncation to enhance the solubility. The E. coli competent cell line BL21(DE3) was used for expression of the protein. […] The cultures were cooled to 20° C. and induced with 1 mM IPTG. Fresh ampicillin was added to a final concentration of 50 μg/mL and the cells were grown overnight at 20° C.
The lysis buffer consisted of 20 mM Tris-HCl, pH 7.4, 500 mM NaCl, 0.5% triton X-100, 1 mM DTT, 1 mM EDTA, 20% glycerol, 0.5 mg/mL lysozyme, 10 mM MgCl2, 15 ug/mL deoxyribonuclease I, and Complete TM protease inhibitor tablets (Roche). After addition of the lysis buffer, frozen cell pellets were resuspended using a tissue homogenizer. To reduce the viscosity of the sample, aliquots of the lysate were sonicated on ice using a microtip attached to a Branson sonicator. The sonicated lysate was centrifuged at 100,000×g for 30 minutes at 4° C. and filtered through a 0.2 μm filter unit (Corning).
The protein was purified using two sequential chromatography steps: Heparin sepharose CL-6B and polyU sepharose 4B. The chromatography buffers were identical to the lysis buffer but contained no lysozyme, deoxyribonuclease I, MgCl2 or protease inhibitor and the NaCl concentration of the buffer was adjusted according to the requirements for charging the protein onto the column. Each column was eluted with a NaCl gradient which varied in length from 5-50 column volumes depending on the column type. […] The enzyme was aliquoted and stored at −80° C.
An on-bead solid phase homogeneous assay was used in a 384-well format to assess NS5B inhibitors (WangY-K, Rigat K, Roberts S, and Gao M (2006) Anal Biochem, 359: 106-111). The biotinylated oligo dT12 primer was captured on streptavidin-coupled imaging beads (GE, RPNQ0261) by mixing primer and beads in 1× buffer and incubating at room temperature for three hours. Unbound primer was removed after centrifugation. The primer-bound beads were resuspended in 3× reaction mix (20 mM Hepes buffer, pH 7.5, dT primer coupled beads, poly A template, ^3H-UTP, and RNAse inhibitor (Promega N2515)). Compounds were serially diluted 1:3 in DMSO and aliquoted into assay plates. […]
Reactions were allowed to proceed for 24 hours at 30° C. and terminated by the addition of 50 mM EDTA (5 μL). After incubating for at least 15 minutes, plates were read on an Amersham LEADseeker multimodality imaging system.
IC50 values for compounds were determined using ten different [I]. IC50 values were calculated from the inhibition using the four-parameter logistic formula y=A+((B−A)/(1+((C/x)^D))), where A and B denote minimal and maximal % inhibition, respectively, C is the IC50, D is hill slope and x represents compound concentration.

The conditions of data set [2]: extended dosing, combination with interferon and ribavirin; cited from earlier work.
The test system of the next data set is HCV. Conditions: cited from earlier work.
The mark [3] stands for this setting: 1b enzyme, 7 nM NS5B, 24 hours at 30° C., read-out: IC50.

The term EC50 denotes the concentration needed to bring the measured effect to its halfway point. Read a low EC50 as greater potency. For orientation: IC50 means the concentration at which inhibition is half-maximal.

HCV NS5B, sequence (Q9WMX2 2420-2992): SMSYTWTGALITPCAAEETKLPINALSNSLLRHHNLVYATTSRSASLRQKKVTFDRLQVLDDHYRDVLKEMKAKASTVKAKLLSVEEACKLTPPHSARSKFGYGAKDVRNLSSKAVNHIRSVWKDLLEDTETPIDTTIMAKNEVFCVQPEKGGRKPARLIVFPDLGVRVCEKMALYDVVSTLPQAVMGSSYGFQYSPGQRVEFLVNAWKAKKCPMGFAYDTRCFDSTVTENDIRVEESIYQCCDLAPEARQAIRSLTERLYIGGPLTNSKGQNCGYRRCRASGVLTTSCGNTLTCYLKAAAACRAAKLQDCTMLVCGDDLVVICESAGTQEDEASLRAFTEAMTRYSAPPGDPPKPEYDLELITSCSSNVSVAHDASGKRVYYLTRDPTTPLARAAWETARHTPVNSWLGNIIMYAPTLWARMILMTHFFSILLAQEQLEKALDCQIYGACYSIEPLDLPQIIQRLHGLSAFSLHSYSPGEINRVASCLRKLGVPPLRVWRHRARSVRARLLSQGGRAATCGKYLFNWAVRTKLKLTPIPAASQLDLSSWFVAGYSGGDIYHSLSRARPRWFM

Turning to `CNC(=O)c1c(-c2ccc(F)cc2)oc2nc(CCC(F)(F)F)c(-c3cccc(C(=O)NC4(c5ncon5)CCC4)c3)cc12` [Example 4, 5-(3-((1-(1,2,4-oxadiazol-3-yl)cyclobutyl)carbamoyl)phenyl)-2-(4-fluorophenyl)-N-methyl-6-(3,3,3-trifluoropropyl)furo[2,3-b]pyridine-3-carboxamide], the response in data set [1] was half-maximal at 2.41 nM (EC50). Further, the IC50 at HCV NS5B (setting [3]) turned out to be 2.05 nM. On the same counts, the results for `CNC(=O)c1c(-c2ccc(F)cc2)oc2nc(CCC(F)(F)F)c(-c3cccc(C(=O)NC(C)(C)c4nc(C)no4)c3)cc12` [Example 9, 2-(4-fluorophenyl)-N-methyl-5-(3-((2-(3-methyl-1,2,4-oxadiazol-5-yl)propan-2-yl)carbamoyl)phenyl)-6-(3,3,3-trifluoropropyl)furo[2,3-b]pyridine-3-carboxamide] are 2.11 nM and 2.87 nM. `CNC(=O)c1c(-c2ccc(F)cc2)oc2nc(NCC(F)(F)F)c(-c3ccc(F)c(C(=O)NC(C)(C)c4ncon4)c3)cc12` [Example 13, 5-(3-((2-(1,2,4-oxadiazol-3-yl)propan-2-yl)carbamoyl)-4-fluorophenyl)-2-(4-fluorophenyl)-N-methyl-6-((2,2,2-trifluoroethyl)amino)furo[2,3-b]pyridine-3-carboxamide] registered an EC50 in data set [1] of 5.76 nM. Besides, the IC50 on HCV NS5B (setting [3]) was 3.42 nM.

In the case of `[2H]C([2H])([2H])Oc1ncc(-c2cc3c(C(=O)NC)c(-c4ccc(F)cc4)oc3nc2CCC(F)(F)F)cc1C(=O)NC(c1ncon1)(C([2H])([2H])[2H])C([2H])([2H])[2H]` [Example 17, 5-[2-(4-fluorophenyl)-3-(methylcarbamoyl)-6-(3,3,3-trifluoropropyl)furo[2,3-b]pyridin-5-yl]-2-(^2H3)methoxy-N-[2-(1,2,4-oxadiazol-3-yl)(^2H6)propan-2-yl]pyridine-3-carboxamide], the IC50 on HCV NS5B is 2.4 nM.

In the case of `CNC(=O)c1c(-c2ccc(F)cc2)oc2cc(N(CCO)S(C)(=O)=O)c(C3CC3)cc12` [HCV-796], the hepatic toxicity result in data set [2] is recorded as “hepatic toxicity observed during extended dosing of the combination regimens”. Further, the “HCV RNA levels in patients” value in the data set with HCV (single agent, transient decrease then rebound during dosing) is on record as “reduce HCV RNA levels in patients”. For the molecule alpha-interferon and ribavirin, the sustained efficacy in the data set with HCV (combination therapy) was 40 % of patients.
